Data taken from PubChem BioAssay AID256 (DTP/NCI, 2004).
“And” between values parts separate entries of the source, which are not always exact repeats. Equal entries are not always repeated. Inconclusive results and toxic doses are left out. Rule for the calls: active = survival T/C of 150% or more; inactive = T/C below 125% in these data.

Test system: CD2F1 mice, L1210 leukemia ip, survival T/C
Assay: NCI In Vivo Anticancer Drug Screen. Data for tumor model L1210 Leukemia (intraperitoneal) in CD2F1 (CDF1) mice
Settings: higher = longer survival
Outline: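 Read-out first: treated-group measurement over vehicle-control measurement, expressed as a ratio. Animals bore a transplanted tumor line and were dosed with compound or vehicle.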

[1] = endpoint: mean survival time, dose: 100.0 mg/kg/injection, schedule: Q01DX009 (ip), vehicle: saline with Tween-80
[2] = endpoint: mean survival time, dose: 100.0 mg/kg/injection, schedule: Q04DX003 (ip), vehicle: saline with Tween-80
[3] = endpoint: mean survival time, dose: 200.0 mg/kg/injection, schedule: Q01DX009 (ip), vehicle: saline with Tween-80
[4] = endpoint: mean survival time, dose: 200.0 mg/kg/injection, schedule: Q04DX003 (ip), vehicle: saline with Tween-80
[5] = endpoint: mean survival time, dose: 400.0 mg/kg/injection, schedule: Q04DX003 (ip), vehicle: saline with Tween-80
[6] = endpoint: mean survival time, dose: 12.5 mg/kg/injection, schedule: Q01DX005 (ip), vehicle: water
[7] = endpoint: mean survival time, dose: 25.0 mg/kg/injection, schedule: Q01DX005 (ip), vehicle: water
[8] = endpoint: mean survival time, dose: 50.0 mg/kg/injection, schedule: Q01DX005 (ip), vehicle: water
[9] = endpoint: mean survival time, dose: 400.0 mg/kg/injection, schedule: Q01DX009 (ip), vehicle: saline with Tween-80
[10] = endpoint: mean survival time, dose: 100.0 mg/kg/injection, schedule: Q04DX003 (ip), vehicle: other
[11] = endpoint: mean survival time, dose: 200.0 mg/kg/injection, schedule: Q04DX003 (ip), vehicle: other

Measured: T/C

CCOC(=O)c1c(C)cc(C)cc1C
inactive: endpoint: mean survival time, dose: 50.0 mg/kg/injection, schedule: Q01DX001 (ip), vehicle: Klucel (hydroxypropylcellulose) (HPC) 99 % of control | endpoint: mean survival time, dose: 100.0 mg/kg/injection, schedule: Q01DX001 (ip), vehicle: Klucel (hydroxypropylcellulose) (HPC) 102 % of control | endpoint: mean survival time, dose: 200.0 mg/kg/injection, schedule: Q01DX001 (ip), vehicle: Klucel (hydroxypropylcellulose) (HPC) 96 % of control

CCCCC(C)(O)CC (stereo unspecified)
inactive: [1] 93 % of control | [2] 95 % of control | [3] 95 % of control | [4] 105 % of control | [5] 107 % of control

Nc1ccn(C2OC(C(OC3OC(CO)C(O)C(N)C3O)C(O)C(O)C(O)C(O)CO)C(N)C(O)C2O)c(=O)n1 (stereo unspecified)
inactive: endpoint: mean survival time, dose: 0.1 mg/kg/injection, schedule: Q01DX005 (ip), vehicle: saline 104 % of control | endpoint: mean survival time, dose: 0.2 mg/kg/injection, schedule: Q01DX005 (ip), vehicle: saline 102 % of control | endpoint: mean survival time, dose: 0.4 mg/kg/injection, schedule: Q01DX005 (ip), vehicle: saline 101 % of control

NC(=O)NC(=O)c1cccc([N+](=O)[O-])c1
inactive: [1] 104 % of control | [2] 97 % of control | [3] 97 % of control | [4] 94 % of control

CCN(CC)c1ccc(N=Nc2c(C)nc(N)nc2-c2ccccc2)cc1
inactive: endpoint: mean survival time, dose: 150.0 mg/kg/injection, schedule: Q01DX001 (ip), vehicle: saline 97 % of control

C[S+](C)CC(=O)c1ccccc1O
inactive: [2] 103 % of control | [4] 99 % of control | [5] 100 % of control

NC(=O)c1cn(C2OC(CO)C(O)C2O)c2nc(N)nc(N)c2c1=O (stereo unspecified)
inactive: [6] 104 % of control | [7] 104 % of control | [8] 104 % of control | endpoint: mean survival time, dose: 100.0 mg/kg/injection, schedule: Q01DX005 (ip), vehicle: water 124 % of control | endpoint: median survival time, dose: 50.0 mg/kg/injection, schedule: Q01DX005 (ip), vehicle: saline with Tween-80 103 % of control and 107 % of control | endpoint: median survival time, dose: 100.0 mg/kg/injection, schedule: Q01DX005 (ip), vehicle: saline with Tween-80 105 % of control and 110 % of control | endpoint: median survival time, dose: 200.0 mg/kg/injection, schedule: Q01DX005 (ip), vehicle: saline with Tween-80 115 % of control and 106 % of control | endpoint: median survival time, dose: 400.0 mg/kg/injection, schedule: Q01DX005 (ip), vehicle: saline with Tween-80 117 % of control

CCOC(=O)Cc1nnc(N)s1
inactive: [2] 96 % of control | [4] 100 % of control | [5] 102 % of control

CC1=NN(c2ccccc2)C(=O)C1N=Nc1ccc([As](=O)(O)O)c(O)c1 (stereo unspecified)
inactive: [1] 103 % of control | [2] 106 % of control | [3] 97 % of control | [4] 100 % of control | [5] 101 % of control

O=c1[nH]c(=O)n(CCCO)cc1F
inactive: [6] 111 % of control | [7] 115 % of control and 103 % of control | [8] 122 % of control and 123 % of control | endpoint: mean survival time, dose: 200.0 mg/kg/injection, schedule: Q01DX005 (ip), vehicle: water 96 % of control

CNCCC(=N)C(=N)CCNC
inactive: endpoint: mean survival time, dose: 100.0 mg/kg/injection, schedule: Q04DX002 (ip), vehicle: saline 111 % of control | endpoint: mean survival time, dose: 200.0 mg/kg/injection, schedule: Q04DX002 (ip), vehicle: saline 106 % of control | endpoint: mean survival time, dose: 400.0 mg/kg/injection, schedule: Q04DX002 (ip), vehicle: saline 103 % of control

COC(=O)C(NC(=O)C(C)NC(=O)OCc1ccccc1)C(C)C (stereo unspecified)
inactive: [1] 97 % of control | [3] 93 % of control | [9] 98 % of control

O=C(O)CC(Sc1ccccc1)c1ccccc1 (stereo unspecified)
inactive: [10] 97 % of control | [11] 101 % of control

CC(=O)NC(C=O)OCC=O (stereo unspecified)
inactive: endpoint: median survival time, dose: 6.0 mg/kg/injection, schedule: Q01DX009 (ip), vehicle: water 100 % of control | endpoint: median survival time, dose: 6.25 mg/kg/injection, schedule: Q01DX009 (ip), vehicle: water 105 % of control | endpoint: median survival time, dose: 12.0 mg/kg/injection, schedule: Q01DX009 (ip), vehicle: water 103 % of control | endpoint: median survival time, dose: 12.5 mg/kg/injection, schedule: Q01DX009 (ip), vehicle: water 105 % of control | endpoint: median survival time, dose: 25.0 mg/kg/injection, schedule: Q01DX009 (ip), vehicle: water 105 % of control and 108 % of control | endpoint: median survival time, dose: 50.0 mg/kg/injection, schedule: Q01DX009 (ip), vehicle: water 102 % of control and 108 % of control | endpoint: median survival time, dose: 100.0 mg/kg/injection, schedule: Q01DX009 (ip), vehicle: water 116 % of control and 111 % of control | endpoint: median survival time, dose: 200.0 mg/kg/injection, schedule: Q01DX009 (ip), vehicle: water 115 % of control and 108 % of control

CC(=O)Oc1cc2c(cc1C(C)C)CCC1C(C)(C#N)CCCC21C (stereo unspecified)
inactive: [1] 90 % of control | [2] 89 % of control | [3] 95 % of control | [4] 87 % of control | [9] 92 % of control | [5] 98 % of control

N/C(=N\c1nc(N)cc(=O)[nH]1)Nc1ccc(S(N)(=O)=O)cc1
inactive: endpoint: mean survival time, dose: 100.0 mg/kg/injection, schedule: Q01DX009 (ip), vehicle: saline 96 % of control | endpoint: mean survival time, dose: 200.0 mg/kg/injection, schedule: Q01DX009 (ip), vehicle: saline 95 % of control | endpoint: mean survival time, dose: 400.0 mg/kg/injection, schedule: Q01DX009 (ip), vehicle: saline 95 % of control

Cc1ccc2c(c1)CCCN2C(=O)c1ccccc1
inactive: [10] 89 % of control | [11] 92 % of control | endpoint: mean survival time, dose: 400.0 mg/kg/injection, schedule: Q04DX003 (ip), vehicle: other 94 % of control

N#Cc1c(-c2ccccc2)c(-c2ccccc2)nn(CC(=O)O)c1=O
inactive: endpoint: median survival time, dose: 25.0 mg/kg/injection, schedule: Q01DX005 (ip), vehicle: distilled water + Tween-80 105 % of control | endpoint: median survival time, dose: 50.0 mg/kg/injection, schedule: Q01DX005 (ip), vehicle: distilled water + Tween-80 90 % of control | endpoint: median survival time, dose: 100.0 mg/kg/injection, schedule: Q01DX005 (ip), vehicle: distilled water + Tween-80 95 % of control | endpoint: median survival time, dose: 200.0 mg/kg/injection, schedule: Q01DX005 (ip), vehicle: distilled water + Tween-80 92 % of control
